Measurements reported in US7371773B2, “Breast cancer resistance protein (BCRP) inhibitor” (Kabushiki Kaisha Yakult Honsha, priority 2003, dated 2008).
Values after ≈ are worked out from the molar mass of the structure shown.

test system: A549/SN-38-4 cell line; assay: Overcoming anticancer drug resistance of A549/SN-38-4 cell line; format: cell-based, human; settings: not given
Procedure: The effect of a diphenylacrylonitrile derivative on BCRP-mediated anticancer drug resistance was studied by use of the human lung cancer A549/SN-38-4 cell line, which had acquired anticancer drug resistance through BCRP expression. The human lung cancer A549 cell line or the A549/SN-38-4 cell line was suspended in 10% FBS/Ham's F-12, and the resultant suspension was inoculated into a 96-well microplate, followed by culturing at 5% CO2 and 37° C. overnight (2×10^3 cells/50 μL/well). Thereafter, a 10% FBS/Ham's F-12 solution (25 μL) containing a diphenylacrylonitrile derivative and SN-38 or mitoxantrone was added to each of the wells, followed by culturing at 5% CO2 and 37° C. for 48 hours. After completion of culturing, the number of viable cells was counted by use of TetraColor ONE according to the attached instruction manual. […] The greater the relative resistance value, the higher the level of acquired resistance.

Point of comparison: `COc1ccc(/C(C#N)=C/c2ccc(OP(=O)(O)O)c(OC)c2)cc1OC` [Compound 71, mono-{4-[(Z)-2-cyano-2-(3,4-dimethoxy-phenyl)-vinyl]-2-methoxy-phenyl} phosphate], “Resistance overcoming effect EC50” value 0.29 µg/mL. Against it:
- COc1ccc(/C(C#N)=C/c2ccc(OP(=O)(O)O)cc2)cc1OC [Compound 70, mono-{4-[(Z)-2-cyano-2-(3,4-dimethoxy-phenyl)-vinyl]-phenyl} phosphate] — within 1.5-fold, 0.24 µg/mL

same assay, conditions: Homo sapiens, A549; SN-38 resistance, concentration for 50% reduction of relative resistance value, 48 hours; read-out: Resistance overcoming effect EC50

Point of comparison: `COc1ccc(/C=C(\C#N)c2ccc(OC(C)=O)c(F)c2)cc1OC` [Compound 64, 4-[(Z)-1-cyano-2-(3,4-dimethoxy-phenyl)-vinyl]-2-fluoro-phenyl acetate], EC50 0.01 µg/mL. Against it:
- COc1ccc(/C(C#N)=C/c2cc3c(cc2[N+](=O)[O-])OCO3)cc1OC [Compound 46, (Z)-2-(3,4-dimethoxy-phenyl)-3-(6-nitro-benzo[1,3]dioxol-5-yl)-acrylonitrile] — 58-fold higher, 0.58 µg/mL (≈ 1.64 µM)
- COc1ccc(/C(C#N)=C/c2ccc(OC(=O)CCC(=O)Oc3ccc(/C=C(\C#N)c4ccc(OC)c(OC)c4)cc3)cc2)cc1OC [Compound 43, bis-{4-[(Z)-2-cyano-2-(3,4-dimethoxy-phenyl)-vinyl]-phenyl} succinate] — 12-fold higher, 0.12 µg/mL
- COc1ccc(/C(C#N)=C/c2cc(F)cc(F)c2F)cc1OC [Compound 28, (Z)-2-(3,4-dimethoxy-phenyl)-3-(2,3,5-trifluoro-phenyl)-acrylonitrile] — within 1.5-fold, 0.011 µg/mL (≈ 0.0345 µM)
- COc1ccc(/C(C#N)=C/c2ccc(N)cc2)cc1OC [Compound 34, (Z)-3-(4-amino-phenyl)-2-(3,4-dimethoxy-phenyl)-acrylonitrile] — 7.9-fold higher, 0.079 µg/mL (≈ 0.282 µM)
- COc1ccc(/C(C#N)=C/c2cc(F)c(F)c(F)c2)cc1OC [Compound 31, (Z)-2-(3,4-dimethoxy-phenyl)-3-(3,4,5-trifluoro-phenyl)-acrylonitrile] — 1.5-fold higher, 0.015 µg/mL (≈ 0.047 µM)
- COc1ccc(/C(C#N)=C/c2ccc(F)cc2)cc1OC [Compound 18, (Z)-2-(3,4-dimethoxy-phenyl)-3-(4-fluoro-phenyl)-acrylonitrile] — 1.6-fold lower, 0.0063 µg/mL (≈ 0.0222 µM)
- COc1ccc(/C(C#N)=C/c2ccccc2F)cc1OC [Compound 20, (Z)-2-(3,4-dimethoxy-phenyl)-3-(2-fluoro-phenyl)-acrylonitrile] — 5.3-fold higher, 0.053 µg/mL (≈ 0.187 µM)
- COc1ccc(/C(C#N)=C/c2cccc(F)c2O)cc1OC [Compound 55, (Z)-2-(3,4-dimethoxy-phenyl)-3-(3-fluoro-2-hydroxy-phenyl)-acrylonitrile] — 1.5-fold higher, 0.015 µg/mL (≈ 0.0501 µM)
- COc1ccc(/C(C#N)=C/c2ccc([N+](=O)[O-])c(O)c2)cc1OC [Compound 53, (Z)-2-(3,4-dimethoxy-phenyl)-3-(3-hydroxy-4-nitro-phenyl)-acrylonitrile] — 4.8-fold higher, 0.048 µg/mL (≈ 0.147 µM)
- COCCOCOc1ccc(/C(C#N)=C/c2ccc(OC)c(OC)c2)cc1 [Compound 47, (Z)-3-(3,4-dimethoxy-phenyl)-2-[4-(2-methoxy-ethoxymethoxy)-phenyl]-acrylonitrile] — 5.3-fold higher, 0.053 µg/mL (≈ 0.143 µM)
- COc1ccc(/C(C#N)=C/c2ccc(C=O)cc2)cc1OC [Compound 62, (Z)-2-(3,4-dimethoxy-phenyl)-3-(4-formyl-phenyl)-acrylonitrile] — 11-fold higher, 0.11 µg/mL (≈ 0.375 µM)
- COc1ccc(/C=C(\C#N)c2ccc(OC)c(OC)c2)cc1OC [Compound 56, (Z)-2,3-bis-(3,4-dimethoxy-phenyl)-acrylonitrile] — 1.6-fold higher, 0.016 µg/mL (≈ 0.0492 µM)
- COc1ccc(/C(C#N)=C/c2cc(OC)c(O)c(OC)c2)cc1OC [Compound 79, (Z)-2-(3,4-dimethoxy-phenyl)-3-(4-hydroxy-3,5-dimethoxy-phenyl)-acrylonitrile] — 1.7-fold higher, 0.017 µg/mL (≈ 0.0498 µM)
- COc1ccc(/C=C(\C#N)c2ccc(O)cc2)cc1OC [Compound 48, (Z)-3-(3,4-dimethoxy-phenyl)-2-(4-hydroxy-phenyl)-acrylonitrile] — within 1.5-fold, 0.013 µg/mL (≈ 0.0462 µM)
- COc1ccc(/C(C#N)=C/c2ccc(F)cc2F)cc1OC [Compound 23, (Z)-3-(2,4-difluoro-phenyl)-2-(3,4-dimethoxy-phenyl)-acrylonitrile] — 4.8-fold higher, 0.048 µg/mL (≈ 0.159 µM)
- COc1ccc(/C(C#N)=C/c2ccc(F)c(F)c2F)cc1OC [Compound 27, (Z)-2-(3,4-dimethoxy-phenyl)-3-(2,3,4-trifluoro-phenyl)-acrylonitrile] — 4.7-fold higher, 0.047 µg/mL (≈ 0.147 µM)
- COc1ccc(/C(C#N)=C/c2cc(F)ccc2F)cc1OC [Compound 24, (Z)-3-(2,5-difluoro-phenyl)-2-(3,4-dimethoxy-phenyl)-acrylonitrile] — within 1.5-fold, 0.0073 µg/mL (≈ 0.0242 µM)
- COc1cc(/C(C#N)=C/c2ccc(OC(C)=O)cc2)cc(OC)c1OC [Compound 65, 4-[(Z)-2-cyano-2-(3,4,5-trimethoxy-phenyl)-vinyl]-phenyl acetate] — 20-fold higher, 0.2 µg/mL
- COc1ccc(/C(C#N)=C/c2ccc(F)c([N+](=O)[O-])c2)cc1OC [Compound 77, (Z)-2-(3,4-dimethoxy-phenyl)-3-(4-fluoro-3-nitro-phenyl)-acrylonitrile] — 30-fold higher, 0.3 µg/mL (≈ 0.914 µM)
- COc1ccc(/C(C#N)=C/c2ccc(F)c(F)c2)cc1OC [Compound 25, (Z)-3-(3,4-difluoro-phenyl)-2-(3,4-dimethoxy-phenyl)-acrylonitrile] — lower, < 0.005 µg/mL
- COc1ccc(/C(C#N)=C/c2ccc(O)c([N+](=O)[O-])c2)cc1OC [Compound 45, (Z)-2-(3,4-dimethoxy-phenyl)-3-(4-hydroxy-3-nitro-phenyl)-acrylonitrile] — 13-fold higher, 0.13 µg/mL (≈ 0.398 µM)
- COc1ccc(/C(C#N)=C/c2ccc(O)c(F)c2)cc1OC [Compound 59, (Z)-2-(3,4-dimethoxy-phenyl)-3-(3-fluoro-4-hydroxy-phenyl)-acrylonitrile] — 4.3-fold higher, 0.043 µg/mL (≈ 0.144 µM)
- COC(=O)CCC(=O)Oc1ccc(/C=C(\C#N)c2ccc(OC)c(OC)c2)cc1 [Compound 41, 4-[(Z)-2-cyano-2-(3,4-dimethoxy-phenyl)-vinyl]-phenyl methyl succinate] — 4.1-fold higher, 0.041 µg/mL
- COCCOCOc1ccc(/C=C(\C#N)c2ccc(OC)c(OC)c2)cc1F [Compound 58, (Z)-2-(3,4-dimethoxy-phenyl)-3-[3-fluoro-4-(2-methoxy-ethoxymethoxy)-phenyl]-acrylonitrile] — 3.3-fold higher, 0.033 µg/mL (≈ 0.0852 µM)
- COc1ccc(/C(C#N)=C/c2c(F)ccc(F)c2F)cc1OC [Compound 29, (Z)-2-(3,4-dimethoxy-phenyl)-3-(2,3,6-trifluoro-phenyl)-acrylonitrile] — 10-fold higher, 0.1 µg/mL (≈ 0.313 µM)
- COc1ccc(/C(C#N)=C/c2cc(F)cc(F)c2)cc1OC [Compound 26, (Z)-3-(3,5-difluoro-phenyl)-2-(3,4-dimethoxy-phenyl)-acrylonitrile] — lower, < 0.005 µg/mL
- COc1ccc(/C(C#N)=C/c2cccc(F)c2F)cc1OC [Compound 22, (Z)-3-(2,3-difluoro-phenyl)-2-(3,4-dimethoxy-phenyl)-acrylonitrile] — 2.2-fold higher, 0.022 µg/mL (≈ 0.073 µM)
- COc1ccc(/C(C#N)=C/c2ccc([N+](=O)[O-])cc2)cc1OC [Compound 19, (Z)-2-(3,4-dimethoxy-phenyl)-3-(4-nitro-phenyl)-acrylonitrile] — 1.9-fold higher, 0.019 µg/mL (≈ 0.0612 µM)
- CCOc1ccc([N+](=O)[O-])cc1/C=C(\C#N)c1ccc(OC)c(OC)c1 [Compound 52, (Z)-2-(3,4-dimethoxy-phenyl)-3-(2-ethoxy-5-nitro-phenyl)-acrylonitrile] — 2.4-fold higher, 0.024 µg/mL (≈ 0.0677 µM)
- COc1ccc(C(C#N)=Cc2cccc(NC(C)=O)c2)cc1OC [Compound 72, N-[3-[2-cyano-2-(3,4-dimethoxy-phenyl)-vinyl]-phenyl]-acetamide] — 2.8-fold higher, 0.028 µg/mL (≈ 0.0869 µM)
- CCOc1ccc(/C=C(\C#N)c2ccc(OC)c(OC)c2)cc1[N+](=O)[O-] [Compound 40, (Z)-2-(3,4-dimethoxy-phenyl)-3-(4-ethoxy-3-nitro-phenyl)-acrylonitrile] — 15-fold higher, 0.15 µg/mL (≈ 0.423 µM)
- COc1ccc(/C(C#N)=C/c2cc([N+](=O)[O-])ccc2F)cc1OC [Compound 39, (Z)-2-(3,4-dimethoxy-phenyl)-3-(2-fluoro-5-nitro-phenyl)-acrylonitrile] — 2.7-fold higher, 0.027 µg/mL (≈ 0.0822 µM)
- COc1ccc(/C(C#N)=C/c2ccc(O)cc2)cc1OC.[Na] [Compound 17, (Z)-2-(3,4-dimethoxy-phenyl)-3-(4-hydroxy-phenyl)-acrylonitrile sodium salt] — 1.8-fold higher, 0.018 µg/mL
- CCOc1cc(/C(C#N)=C/c2ccc(OC)c(OC)c2)ccc1OC(C)=O [Compound 63, 4-[(Z)-1-cyano-2-(3,4-dimethoxy-phenyl)-vinyl]-2-ethoxy-phenyl acetate] — 2.4-fold higher, 0.024 µg/mL
- N#C/C(=C\c1ccc(O)cc1)c1cc(C(F)(F)F)cc(C(F)(F)F)c1 [Compound 49, (Z)-2-(3,5-bis-trifluoromethyl-phenyl)-3-(4-hydroxy-phenyl)-acrylonitrile] — 20-fold higher, 0.2 µg/mL (≈ 0.56 µM)
- COc1ccc(/C(C#N)=C/c2cc(O)c(OC)c(OC)c2)cc1OC [Compound 78, (Z)-2-(3,4-dimethoxy-phenyl)-3-(3-hydroxy-4,5-dimethoxy-phenyl)-acrylonitrile] — 5.3-fold higher, 0.053 µg/mL (≈ 0.155 µM)

same assay, conditions: SN-38 resistance, concentration for 50% reduction of relative resistance value, 48 hours

In the case of `CCN(CC)CC.COc1ccc(/C(C#N)=C/c2ccc(OS(=O)(=O)O)cc2)cc1OC` [Compound 74, sulphoric acid mono-{4-[(Z)-2-cyano-2-(3,4-dimethoxy-phenyl)-vinyl]-phenyl} ester triethylammonium salt], the “Resistance overcoming effect EC50” value is reported as over 1.0 µg/mL.
With “(Z)-2-(3,4-dimethoxyphenyl)-3-[4-(6-phospho-β-D-glucopyranosyl)-phenyl]-acrylonitrile sodium salt [Compound 75]” the “Resistance overcoming effect EC50” value was over 1.0 µg/mL.

Point of comparison: “(Z)-2-(3,4-dimethoxyphenyl)-3-(4-β-maltosyl-phenyl)-acrylonitrile [Compound 51]”, “Resistance overcoming effect EC50” value 0.045 µg/mL. Against it:
- (Z)-2-(3,4-dimethoxyphenyl)-3-(4-β-maltotriosyl-phenyl)-acrylonitrile [Compound 54] — 5.8-fold higher, 0.26 µg/mL
